In ChEMBL document CHEMBL3885861, “Open TG-GATES”:

Organism: Rattus norvegicus
Assay: Open TG-GATES - Regimen: Daily Repeat
Format: toxicity, organism-based, Sprague-Dawley
Design: regimen Daily Repeat, gender Male, age 6 weeks
Conditions: in vivo, po, route gavage; for APTT / Bas / Eos / Fbg / Hb / Ht / Lym / MCH / MCHC / MCV / Mono / Neu / PT / Plat / RBC / Ret / WBC: tissue Blood; for KIDNEY_L / KIDNEY_R / KIDNEY_TOTAL: tissue Kidney; for LIVER: tissue Liver; for A/G / ALP / ALT / AST / BUN / CRE / Ca / Cl / DBIL / GLC / IP / K / LDH / Na / PL / RALB / TBIL / TC / TG / TP / gamma-GTP: tissue Plasma
[1] = 10 mg/kg, 72 h, dose level Middle, time 3 day
[2] = 10 mg/kg, […], dose level Middle, time 7 day
[3] = 10 mg/kg, […], dose level Middle, time 14 day
[4] = 10 mg/kg, […], dose level Middle, time 28 day
[5] = 30 mg/kg, 72 h, dose level High, time 3 day
[6] = 30 mg/kg, […], dose level High, time 7 day
[7] = 30 mg/kg, […], dose level High, time 14 day
[8] = 30 mg/kg, […], dose level High, time 28 day

CN(C)CCC(c1ccc(Cl)cc1)c1ccccn1 (centres undefined) [CHLORPHENIRAMINE]
TERMINAL_BW [1]: 226.7 g
APTT [1]: 18.1 s
Bas [1]: 0%
Eos [1]: 1.2%
Fbg [1]: 297.4 mg/dL
Hb [1]: 13.1 g/dL
Ht [1]: 40.4%
Lym [1]: 77.4%
MCH [1]: 20.7 pg
MCHC [1]: 32.3%
MCV [1]: 63.9 fL
Mono [1]: 2.6%
Neu [1]: 18.6%
PT [1]: 14.8 s
Plat [1]: 123.1 x10_4/uL
RBC [1]: 631.8 x10_4/ul
Ret [1]: 6.1%
WBC [1]: 88.3 x10_2/uL
KIDNEY_L [1]: 1 g
KIDNEY_R [1]: 0.9 g
KIDNEY_TOTAL [1]: 1.9 g
LIVER [1]: 10.2 g
A/G [1]: 0.9
ALP [1]: 1653.8 IU/L
ALT [1]: 38.8 IU/L
AST [1]: 67.8 IU/L
BUN [1]: 14.4 mg/dL
CRE [1]: 0.2 mg/dL
Ca [1]: 10.4 mg/dL
Cl [1]: 107.2 meq/L
DBIL [1]: 0.016 mg/dL
GLC [1]: 184.6 mg/dL
IP [1]: 7.4 mg/dL
K [1]: 4.5 meq/L
LDH [1]: 94.6 IU/L
Na [1]: 141.6 meq/L
PL [1]: 147.8 mg/dL
RALB [1]: 2.6 g/dL
TBIL [1]: 0.038 mg/dL
TC [1]: 82 mg/dL
TG [1]: 76.2 mg/dL
TP [1]: 5.6 g/dL
gamma-GTP [1]: 1.4 IU/L
TERMINAL_BW [2]: 266.4 g
TERMINAL_BW [3]: 329 g
TERMINAL_BW [4]: 411.3 g
APTT [2]: 22.1 s
Bas [2]: 0%
Eos [2]: 0.8%
Fbg [2]: 297.2 mg/dL
Hb [2]: 13.6 g/dL
Ht [2]: 41%
Lym [2]: 77%
MCH [2]: 20.8 pg
MCHC [2]: 33%
MCV [2]: 63.1 fL
Mono [2]: 2.2%
Neu [2]: 19.2%
PT [2]: 14.1 s
Plat [2]: 110 x10_4/uL
RBC [2]: 650.4 x10_4/ul
Ret [2]: 5.7%
WBC [2]: 82.7 x10_2/uL
APTT [3]: 16.1 s
Bas [3]: 0.2%
Eos [3]: 0.4%
Fbg [3]: 365 mg/dL
Hb [3]: 14 g/dL
Ht [3]: 42.2%
Lym [3]: 73.6%
MCH [3]: 20.3 pg
MCHC [3]: 33.1%
MCV [3]: 61.3 fL
Mono [3]: 3.4%
Neu [3]: 19.8%
PT [3]: 14.4 s
Plat [3]: 118 x10_4/uL
RBC [3]: 687.8 x10_4/ul
Ret [3]: 4.6%
WBC [3]: 91.1 x10_2/uL
APTT [4]: 18.2 s
Bas [4]: 0%
Eos [4]: 1%
Fbg [4]: 267.8 mg/dL
Hb [4]: 15.2 g/dL
Ht [4]: 45.1%
Lym [4]: 78.8%
MCH [4]: 18.9 pg
MCHC [4]: 33.8%
MCV [4]: 56 fL
Mono [4]: 2.2%
Neu [4]: 17.4%
PT [4]: 15.2 s
Plat [4]: 106.7 x10_4/uL
RBC [4]: 806.2 x10_4/ul
Ret [4]: 2.2%
WBC [4]: 92.2 x10_2/uL
KIDNEY_L [2]: 1.1 g
KIDNEY_R [2]: 1.1 g
KIDNEY_TOTAL [2]: 2.2 g
KIDNEY_L [3]: 1.3 g
KIDNEY_R [3]: 1.2 g
KIDNEY_TOTAL [3]: 2.5 g
KIDNEY_L [4]: 1.5 g
KIDNEY_R [4]: 1.4 g
KIDNEY_TOTAL [4]: 2.9 g
LIVER [2]: 12.1 g
LIVER [3]: 14.6 g
LIVER [4]: 16.2 g
A/G [2]: 0.8
ALP [2]: 1451.2 IU/L
ALT [2]: 40.6 IU/L
AST [2]: 64.4 IU/L
BUN [2]: 15.8 mg/dL
CRE [2]: 0.2 mg/dL
Ca [2]: 11.4 mg/dL
Cl [2]: 105.8 meq/L
DBIL [2]: 0.012 mg/dL
GLC [2]: 194.4 mg/dL
IP [2]: 7.6 mg/dL
K [2]: 4.2 meq/L
LDH [2]: 96.6 IU/L
Na [2]: 142.6 meq/L
PL [2]: 158.4 mg/dL
RALB [2]: 2.6 g/dL
TBIL [2]: 0.028 mg/dL
TC [2]: 84.8 mg/dL
TG [2]: 98 mg/dL
TP [2]: 5.8 g/dL
gamma-GTP [2]: 1 IU/L
A/G [3]: 0.8
ALP [3]: 1493.6 IU/L
ALT [3]: 41.6 IU/L
AST [3]: 64 IU/L
BUN [3]: 15.8 mg/dL
CRE [3]: 0.2 mg/dL
Ca [3]: 11.2 mg/dL
Cl [3]: 105.4 meq/L
DBIL [3]: 0.016 mg/dL
GLC [3]: 199.6 mg/dL
IP [3]: 7.8 mg/dL
K [3]: 4 meq/L
LDH [3]: 103 IU/L
Na [3]: 144 meq/L
PL [3]: 152.2 mg/dL
RALB [3]: 2.8 g/dL
TBIL [3]: 0.034 mg/dL
TC [3]: 78.2 mg/dL
TG [3]: 116.2 mg/dL
TP [3]: 6 g/dL
gamma-GTP [3]: 1 IU/L
A/G [4]: 0.8
ALP [4]: 1476.8 IU/L
ALT [4]: 39 IU/L
AST [4]: 67 IU/L
BUN [4]: 16.8 mg/dL
CRE [4]: 0.2 mg/dL
Ca [4]: 10.5 mg/dL
Cl [4]: 107.2 meq/L
DBIL [4]: 0.016 mg/dL
GLC [4]: 193.4 mg/dL
IP [4]: 6.2 mg/dL
K [4]: 4.1 meq/L
LDH [4]: 87.2 IU/L
Na [4]: 144.2 meq/L
PL [4]: 141 mg/dL
RALB [4]: 2.7 g/dL
TBIL [4]: 0.03 mg/dL
TC [4]: 65.6 mg/dL
TG [4]: 136.6 mg/dL
TP [4]: 6 g/dL
gamma-GTP [4]: 1 IU/L
TERMINAL_BW [5]: 205.8 g
APTT [5]: 18.2 s
Bas [5]: 0.4%
Eos [5]: 1%
Fbg [5]: 272.2 mg/dL
Hb [5]: 14.3 g/dL
Ht [5]: 43.8%
Lym [5]: 78.6%
MCH [5]: 20.4 pg
MCHC [5]: 32.5%
MCV [5]: 62.5 fL
Mono [5]: 3.2%
Neu [5]: 15.8%
PT [5]: 15.3 s
Plat [5]: 124 x10_4/uL
RBC [5]: 701 x10_4/ul
Ret [5]: 3.4%
WBC [5]: 91.9 x10_2/uL
KIDNEY_L [5]: 1 g
KIDNEY_R [5]: 0.9 g
KIDNEY_TOTAL [5]: 1.9 g
LIVER [5]: 8.8 g
A/G [5]: 0.9
ALP [5]: 1539.6 IU/L
ALT [5]: 38 IU/L
AST [5]: 67.2 IU/L
BUN [5]: 14.8 mg/dL
CRE [5]: 0.2 mg/dL
Ca [5]: 10.3 mg/dL
Cl [5]: 108.8 meq/L
DBIL [5]: 0.012 mg/dL
GLC [5]: 182.6 mg/dL
IP [5]: 7.5 mg/dL
K [5]: 4.5 meq/L
LDH [5]: 95.6 IU/L
Na [5]: 142.2 meq/L
PL [5]: 133 mg/dL
RALB [5]: 2.6 g/dL
TBIL [5]: 0.038 mg/dL
TC [5]: 74.6 mg/dL
TG [5]: 62.6 mg/dL
TP [5]: 5.5 g/dL
gamma-GTP [5]: 1.2 IU/L
TERMINAL_BW [6]: 242.7 g
TERMINAL_BW [7]: 294.5 g
TERMINAL_BW [8]: 368.6 g
APTT [6]: 19.1 s
Bas [6]: 0.4%
Eos [6]: 1%
Fbg [6]: 302.6 mg/dL
Hb [6]: 13.6 g/dL
Ht [6]: 40.9%
Lym [6]: 74%
MCH [6]: 20.5 pg
MCHC [6]: 33.3%
MCV [6]: 61.4 fL
Mono [6]: 3.2%
Neu [6]: 21.2%
PT [6]: 13.9 s
Plat [6]: 119 x10_4/uL
RBC [6]: 665.2 x10_4/ul
Ret [6]: 3.6%
WBC [6]: 121.3 x10_2/uL
APTT [7]: 17.1 s
Bas [7]: 0.2%
Eos [7]: 0.8%
Fbg [7]: 282 mg/dL
Hb [7]: 14.1 g/dL
Ht [7]: 42.4%
Lym [7]: 79.2%
MCH [7]: 19.9 pg
MCHC [7]: 33.4%
MCV [7]: 59.7 fL
Mono [7]: 2.6%
Neu [7]: 16.4%
PT [7]: 14.3 s
Plat [7]: 113.7 x10_4/uL
RBC [7]: 709 x10_4/ul
Ret [7]: 4.6%
WBC [7]: 93.8 x10_2/uL
APTT [8]: 20.7 s
Bas [8]: 0%
Eos [8]: 0.8%
Fbg [8]: 290.6 mg/dL
Hb [8]: 15.8 g/dL
Ht [8]: 46.8%
Lym [8]: 80.6%
MCH [8]: 19 pg
MCHC [8]: 33.8%
MCV [8]: 56.2 fL
Mono [8]: 2.6%
Neu [8]: 14.8%
PT [8]: 15.1 s
Plat [8]: 110.6 x10_4/uL
RBC [8]: 834 x10_4/ul
Ret [8]: 2.2%
WBC [8]: 98.8 x10_2/uL
KIDNEY_L [6]: 1 g
KIDNEY_R [6]: 1 g
KIDNEY_TOTAL [6]: 2 g
KIDNEY_L [7]: 1.1 g
KIDNEY_R [7]: 1.1 g
KIDNEY_TOTAL [7]: 2.3 g
KIDNEY_L [8]: 1.5 g
KIDNEY_R [8]: 1.4 g
KIDNEY_TOTAL [8]: 2.9 g
LIVER [6]: 10.9 g
LIVER [7]: 12.6 g
LIVER [8]: 15.6 g
A/G [6]: 0.8
ALP [6]: 1512.4 IU/L
ALT [6]: 40.6 IU/L
AST [6]: 65 IU/L
BUN [6]: 16 mg/dL
CRE [6]: 0.2 mg/dL
Ca [6]: 11.3 mg/dL
Cl [6]: 106.2 meq/L
DBIL [6]: 0.012 mg/dL
GLC [6]: 185.6 mg/dL
IP [6]: 7.6 mg/dL
K [6]: 4.4 meq/L
LDH [6]: 112.2 IU/L
Na [6]: 141.6 meq/L
PL [6]: 163.6 mg/dL
RALB [6]: 2.6 g/dL
TBIL [6]: 0.028 mg/dL
TC [6]: 86.4 mg/dL
TG [6]: 117 mg/dL
TP [6]: 5.8 g/dL
gamma-GTP [6]: 1 IU/L
A/G [7]: 0.8
ALP [7]: 1415.4 IU/L
ALT [7]: 32.8 IU/L
AST [7]: 57.8 IU/L
BUN [7]: 15.4 mg/dL
CRE [7]: 0.2 mg/dL
Ca [7]: 11.1 mg/dL
Cl [7]: 105.8 meq/L
DBIL [7]: 0.012 mg/dL
GLC [7]: 190.6 mg/dL
IP [7]: 7.6 mg/dL
K [7]: 4.6 meq/L
LDH [7]: 122.4 IU/L
Na [7]: 141.8 meq/L
PL [7]: 155.8 mg/dL
RALB [7]: 2.8 g/dL
TBIL [7]: 0.03 mg/dL
TC [7]: 82.4 mg/dL
TG [7]: 121 mg/dL
TP [7]: 6 g/dL
gamma-GTP [7]: 1 IU/L
A/G [8]: 0.8
ALP [8]: 1092.6 IU/L
ALT [8]: 34 IU/L
AST [8]: 54.6 IU/L
BUN [8]: 16 mg/dL
CRE [8]: 0.2 mg/dL
Ca [8]: 10.7 mg/dL
Cl [8]: 105.6 meq/L
DBIL [8]: 0.014 mg/dL
GLC [8]: 184 mg/dL
IP [8]: 7.1 mg/dL
K [8]: 4.4 meq/L
LDH [8]: 92.8 IU/L
Na [8]: 144.2 meq/L
PL [8]: 150.2 mg/dL
RALB [8]: 2.8 g/dL
TBIL [8]: 0.03 mg/dL
TC [8]: 75.2 mg/dL
TG [8]: 148 mg/dL
TP [8]: 6.2 g/dL
gamma-GTP [8]: 1.2 IU/L
